Literature values, collected in patent US20050169991A1, “Sustained release torsemide dosage forms” (Penwest Pharmaceuticals Co., priority 2003, published 2005).

Details: in vivo

half-life: 6 h
SMILES: Cc1cccc(Nc2ccncc2S(=O)(=O)NC(=O)NC(C)C)c1 [Torsemide]
